{"source": "patent US10874652B2", "about": "“Muscle regeneration” (The Research Foundation for The State University of New York, priority 2016, dated 2020)", "key": {"[1]": {"system": "dystrophic (mdx4cv) mice", "assay": "Grip strength, Kondziela's inverted screen test in dystrophic mice", "format": "in vivo, mouse", "protocol": "To test whether elastase inhibition is effective in counteracting the devastating effects of the muscular dystrophy symptoms, we injected dystrophic (mdx4cv) mice with either 100 mg/Kg body weight of Elastatinal dissolved in sterile saline solution (0.9% […]) or with vehicle (sterile saline solution) alone (n=3) twice a week for 6 weeks then measured the grip strength of all 4 limbs using Kondziela's inverted screen test. Each animal was offered three attempts to reach 90 seconds of grip before falling then the best performance was assigned a score (1 to 6 for every 15 seconds spent on the grid, e.g.: 1-14 seconds=score 1, 15-29 seconds=score 2, etc.). Scores were averaged and plotted as mean±the standard error of the mean.\nIn addition to the above mentioned experiment, Elastatinal was dissolved in a saline solution (0.9% NaCl) to a concentration of 20 mg/mL and then either 200 mg/Kg body weight of Elastatinal or an equal volume of saline solution were injected twice a week for 12 weeks intraperitoneally into dystrophic (mdx4cv) mice. At 8, 10 and 12 weeks of treatment, muscle function (grip strength) of the mice was measured using Kondziella's inverted screen test. A 1-6 score was assigned for every 15 seconds of the total time spent by the mouse on the inverted grid such that a score of 6 indicates at least 90 seconds of latency to fall. […] Error bars are S.E.M. **=p<0.01."}, "[2]": {"system": "dystrophic (mdx4cv) mice", "assay": "Muscle fibre size (minimum Feret diameter) in dystrophic mice", "format": "in vivo, mouse", "conditions": "200 mg/Kg intraperitoneally twice a week, 12 weeks, gastrocnemius muscle, vs saline", "protocol": "To test whether inhibition of elastase activity promoted muscle regeneration in vivo in dystrophic mice, dystrophic (mdx4cv strain) mice were treated with either the elastase inhibitor Elastatinal (dissolved in saline solution) or saline solution for 12 weeks and muscle fibre size was assayed.\nElastatinal (Enzo Life Sciences) was dissolved in a saline solution (0.9% NaCl) to the concentration of 20 mg/mL and then, either 200 mg/Kg body weight of Elastatinal or an equal volume of saline solution were injected twice a week intraperitoneally into the dystrophic (mdx4cv) mice. After 12 weeks of treatment animals were culled and several muscles dissected, embedded in Optimal Cutting Medium (OCT, Fisher) and frozen in liquid nitrogen-cooled isopentane (Sigma) for histopathological analysis.\nTo measure the extent of muscle regeneration, myofibre size was estimated. Sections of the gastrocnemius muscle of either Elastatinal-treated or saline-treated mice were immunostained to detect laminin which marks the periphery of each muscle fibre and then the programme SMASH′ was used to calculate the minimum Feret diameter as a direct measure of myofibre size."}, "[3]": {"system": "dystrophic (mdx4cv) mice", "assay": "Muscle fibrosis, Picrosirius red staining of gastrocnemius muscle", "format": "in vivo, mouse", "conditions": "200 mg/kg, 12 weeks, vs saline", "protocol": "(§1) The objective of this experiment was to determine whether elastase inhibitors can reduce inflammation and/or fibrosis. To test this, cross-sections of the gastrocnemius muscle of mice that were treated with either Elastatinal or saline solution were stained with Picrosirius red, or labelled with an anti-CD45 antibody or an anti-laminin antibody. Picrosirius red allows to differentiate between collagen and the rest of the tissue as it stains the collagen a different colour. The anti-CD45 antibody allows the detection of infiltrating leukocytes (which are a marker of inflammation), and the anti-laminin antibody allows the detection of the periphery of myofibres. Both, the amount of fibrosis and the amount of infiltrated CD45+ leukocytes were reduced with Elastatinal treatment, supporting the hypothesis that elastase activity inhibition reduces fibrosis and inflammation.\n(§2) For this experiment, the mice were treated with an injection of 200 mg/kg of Elastatinal dissolved in a saline solution (0.9% NaCl) to a concentration of 20 mg/mL. Control mice were treated with an equal volume of saline. […]\nThe amount of Picrosirius red staining was quantified by selecting re pixels and quantifying the red area using the ImageJ function “Analyze particles”. Averages of 10 technical replicates for each one of 3 biological replicates (N=30) were analysed (FIG. 10 B)."}, "[4]": {"system": "elastase", "assay": "Elastase activity in cell culture medium (fluorescent substrate cleavage)", "format": "biochemical", "conditions": "100 μM inhibitor, 0.75 U/mL purified elastase pre-incubated 1 hour", "protocol": "The percentage of substrate cleavage (substrate conversion to product) was monitored over time by recording product formation every minute for 30 minutes (30 cycles of instrument recording) using a Pierce EZ-Reader."}, "[5]": {"system": "dystrophic (mdx4cv) mice", "assay": "Muscle inflammation, CD45+ leukocyte infiltration of gastrocnemius muscle", "format": "in vivo, mouse", "conditions": "200 mg/kg, 12 weeks, vs saline", "protocol": "as §1, §2\nTo measure the extent of inflammation, the numbers of infiltrating leucocyte, recognized by immunostaining for CD45 (BD Biosciences) were scored as percentage of area positive to CD45 immunostaining using a written script for Fiji softwate (available at http://fiji.sc) (FIG. 10 D)."}, "[6]": {"system": "myoblasts", "assay": "Elastase-induced myoblast cell loss ex vivo", "format": "cell-based", "conditions": "100 μM inhibitor with 0.75 U/mL elastase, 24 hours, myoblasts on uncoated plates", "protocol": "In order to determine the effect of elastase inhibitors on cultures myoblasts, myoblasts were seeded at the density of 7,000 cells/well in 12 multi-well plates (Corning) and grown for 1 day in growth medium. Twenty-four hours after plating, 0.75 U/mL of purified elastase (Sigma Aldrich) were added to the culture medium in the absence (Ela) or presence of either 100 μM Sivelestat (Ela+Sivelestat) or 100 μM Elastatinal (Ela+Elastatinal) and cultured for additional 24 hours. Quantification of total cell numbers per image was done in triplicates and plotted as average±standard error of the mean. NT=non-treated cultures, that received neither elastase nor elastase inhibitors. **=p<0.01."}}}
{"smiles": "CC(C)C[C@H](NC(=O)N[C@H](C(=O)N[C@@H](CCC(N)=O)C(=O)N[C@@H](C)C=O)[C@@H]1CCNC(=N)N1)C(=O)O", "note": "[Elastatinal]", "values": [{"measurement": "muscle strength (grip strength)", "setting": "[1]; 100 mg/Kg twice a week for 6 weeks, vs vehicle", "result": "improved muscle strength"}, {"measurement": "grip strength", "setting": "[1]; 200 mg/Kg intraperitoneally twice a week for 12 weeks, measured at 8, 10 and 12 weeks, vs saline", "result": "statistically significantly improved grip strength"}, {"measurement": "muscle fibre size (minimum Feret diameter)", "setting": "[2]", "result": "increasing muscle fibre size"}, {"measurement": "amount of fibrosis", "setting": "[3]", "result": "reduced"}, {"measurement": "reduction of elastase activity", "setting": "[4]", "result": "approximately 80%"}, {"measurement": "amount of infiltrated CD45+ leukocytes", "setting": "[5]", "result": "reduced"}, {"measurement": "elastase-induced cell loss", "setting": "[6]", "result": "prevents elastase-induced cell loss"}]}
{"smiles": "CC(C)(C)C(=O)Oc1ccc(S(=O)(=O)Nc2ccccc2C(=O)NCC(=O)O)cc1", "note": "[Sivelestat]", "values": [{"measurement": "reduction of elastase activity", "setting": "[4]", "result": "approximately 80%"}, {"measurement": "elastase-induced cell loss", "setting": "[6]", "result": "prevents elastase-induced cell loss"}]}
